Assay results: ChEMBL document CHEMBL5126570, “Synthesis, in vitro, in silico and in vivo hypoglycemic and lipid-lowering effects of 4-benzyloxy-5-benzylidene-1,3-thiazolidine-2,4-diones mediated by dual PPAR α/γ modulation” (Bioorg Med Chem Lett, 2022)
Activity calls are given as the source filed them. No cut-off for these calls is given here.

What was measured:
[1] = Lipophilicity, logP of compound; format: physicochemical; details: octanol/water
3T3-L1 [2] = assay: Cytotoxicity against adipocyte differentiated mouse 3T3-L1 cells at 100 uM by MTT assay; format: toxicity, cell-based; details: 3t3-l1, 100 µM
[3] = target: T1, Peroxisome proliferator-activated receptor gamma (Homo sapiens) (UniProt P37231); assay: Binding affinity to PPARgamma (unknown origin) assessed as change in binding free energy; details: filed as modulator
T1 sequence (whole entry): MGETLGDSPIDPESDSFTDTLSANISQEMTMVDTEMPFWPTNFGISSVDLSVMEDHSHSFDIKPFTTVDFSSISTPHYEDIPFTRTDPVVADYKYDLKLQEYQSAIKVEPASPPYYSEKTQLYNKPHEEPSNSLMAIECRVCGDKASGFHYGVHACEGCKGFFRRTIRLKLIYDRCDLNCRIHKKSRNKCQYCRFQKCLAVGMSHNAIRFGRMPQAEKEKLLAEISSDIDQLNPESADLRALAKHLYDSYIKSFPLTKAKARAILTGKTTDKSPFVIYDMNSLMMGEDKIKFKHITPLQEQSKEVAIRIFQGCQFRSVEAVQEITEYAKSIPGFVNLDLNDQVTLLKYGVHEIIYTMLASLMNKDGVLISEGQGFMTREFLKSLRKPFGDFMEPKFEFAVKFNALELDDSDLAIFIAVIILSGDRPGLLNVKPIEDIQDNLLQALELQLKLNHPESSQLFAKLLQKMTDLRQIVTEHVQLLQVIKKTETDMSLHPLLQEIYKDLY

3T3-L1 [4] = assay: Upregulation of PPARgamma mRNA expression in adipocyte differentiated mouse 3T3-L1 cells at 10 uM measured after 24 hrs; format: functional, cell-based
Mus musculus [5] = assay: Antidiabetic activity in nicotinamide and streptozotocin induced hyperglycemic mouse model assessed as reduction in triglyceride level at 100 mg/kg, IG administered as single dose and measured on day 5 (reference value: 93 +/- 10 mg/dl); format: functional
3T3-L1 [6] = assay: Upregulation of PPARgamma mRNA expression in adipocyte differentiated mouse 3T3-L1 cells assessed as fold increase in PPARgamma expression at 10 uM measured after 24 hrs; format: functional
Mus musculus [7] = assay: Antidiabetic activity in nicotinamide and streptozotocin induced hyperglycemic mouse model assessed as reduction in triglyceride level at 100 mg/kg, IG administered as single dose and measured on day 0 (reference value: 92 +/- 10 mg/dl); format: functional
3T3-L1 [8] = assay: Upregulation of GLUT-4 mRNA expression in adipocyte differentiated mouse 3T3-L1 cells at 10 uM measured after 24 hrs; format: functional, cell-based
Mus musculus [9] = assay: Antidiabetic activity in nicotinamide and streptozotocin induced hyperglycemic mouse model assessed as reduction in blood glucose at 100 mg/kg, IG administered as single dose and measured after 7 hrs; format: functional; set-up: scale not given: the % may be the effect or the level left
Mus musculus [10] = assay: Antidiabetic activity in nicotinamide and streptozotocin induced hyperglycemic mouse model assessed as reduction in triglyceride level at 100 mg/kg, IG administered as single dose and measured on day 1 (reference value: 88 +/- 6 mg/dl); format: functional
3T3-L1 [11] = assay: Upregulation of PPARalpha mRNA expression in adipocyte differentiated mouse 3T3-L1 cells assessed as fold increase in PPARalpha expression at 10 uM measured after 24 hrs; format: functional
Mus musculus [12] = assay: Antidiabetic activity in nicotinamide and streptozotocin induced hyperglycemic mouse model assessed as reduction in triglyceride level at 100 mg/kg, IG administered as single dose and measured on day 3 (reference value: 95 +/- 5 mg/dl); format: functional

logP [1] | deltaG [3] | Compound | Activity (3T3-L1 [2]) | Activity (Mus musculus [5]) | Activity (Mus musculus [7]) | Activity (3T3-L1 [8]) | Activity (Mus musculus [10]) | Activity (Mus musculus [12]) | other results
3 | – | O=C1NC(=O)/C(=C/c2ccc(OCc3ccccc3)cc2)S1 | Non-Toxic | – | – | – | – | – | –
4.94 | -7.84 | N#Cc1ccccc1-c1ccc(COc2ccc(/C=C3\SC(=O)NC3=O)cc2)cc1 | – | – | – | – | – | – | –
– | – | N#Cc1ccccc1COc1ccc(/C=C2\SC(=O)NC2=O)cc1 | Non-Toxic | – | – | – | – | – | Activity (3T3-L1 [4]): Active
3.53 | -7.69 | O=C1NC(=O)/C(=C/c2ccc(OCc3ccc(Cl)cc3)cc2)S1 | Non-Toxic | 75 mg/dL | 90 mg/dL | Active | 75 mg/dL | 77 mg/dL | fold change (FC) (3T3-L1 [6]): 5; Activity (Mus musculus [9]): -68%; fold change (FC) (3T3-L1 [11]): 2
– | – | COc1cc(/C=C2\SC(=O)NC2=O)ccc1OCc1ccccc1C#N | Non-Toxic | – | – | – | – | – | –
– | – | COc1cc(/C=C2\SC(=O)NC2=O)ccc1OCc1ccc(C)cc1 | Non-Toxic | – | – | – | – | – | –
– | -7.43 | O=C1N=C(O)S/C1=C\c1ccc(OCc2ccccc2)cc1 | – | 62 mg/dL | 97 mg/dL | Active | 70 mg/dL | 69 mg/dL | Activity (Mus musculus [9]): 38%; Activity (3T3-L1 [4]): Active; fold change (FC) (3T3-L1 [11]): 2
– | – | CC(C)OC(=O)C(C)(C)Oc1ccc(C(=O)c2ccc(Cl)cc2)cc1 [FENOFIBRATE] | – | 58 mg/dL | 88 mg/dL | – | 65 mg/dL | 62 mg/dL | –
– | – | COc1cc(/C=C2\SC(=O)NC2=O)ccc1OCc1ccc(Cl)cc1 | Non-Toxic | – | – | Active | – | – | Activity (3T3-L1 [4]): Active
3.33 | -7.72 | Cc1ccc(COc2ccc(/C=C3\SC(O)=NC3=O)cc2)cc1 | Non-Toxic | 70 mg/dL | 93 mg/dL | Active | 88 mg/dL | 74 mg/dL | fold change (FC) (3T3-L1 [6]): 5; Activity (Mus musculus [9]): 82%; fold change (FC) (3T3-L1 [11]): 2
– | – | COc1cc(/C=C2\SC(=O)NC2=O)ccc1OCc1ccc(-c2ccccc2C#N)cc1 | Non-Toxic | – | – | Active | – | – | –
– | – | COc1cc(/C=C2\SC(=O)NC2=O)ccc1OCc1ccccc1 | Non-Toxic | – | – | Active | – | – | –
